# Measured values published in US10131652B2, “Pyrimidinyloxy benzene derivatives as herbicides” (E. I. DU PONT DE NEMOURS AND COMPANY, priority 2014, dated 2018).
# Experiments:
# Format in all cases: in vivo
# [1] = system: giant foxtail (Setaria faberii); test: Test B pre-/postemergence plant response
# Summary of the method: (§1)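 Visual injury rating, 0 (no effect) to 100 (complete control), vs untreated controls after ~10 d greenhouse. Pre: directed soil spray after planting in loam/sand. Post: plants 2–10 cm, 1–2 leaf stage. Compound in non-phytotoxic solvent plus surfactant.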
# [2] = system: barnyardgrass (Echinochloa crus-galli); test: Test B pre-/postemergence plant response
# Summary of the method: as §1
# [3] = system: pigweed (Amaranthus retroflexus); test: Test B pre-/postemergence plant response
# Summary of the method: as §1
# [4] = system: Italian ryegrass (Lolium multiflorum); test: Test B pre-/postemergence plant response
# Summary of the method: as §1
# [5] = system: corn (Zea mays); test: Test B pre-/postemergence plant response
# Summary of the method: as §1
# [6] = system: ragweed (common ragweed, Ambrosia elatior); test: Test B pre-/postemergence plant response
# Summary of the method: as §1
# [7] = system: wheat (Triticum aestivum); test: Test B pre-/postemergence plant response
# Summary of the method: as §1
# [8] = system: kochia (Kochia scoparia); test: Test B pre-/postemergence plant response
# Summary of the method: as §1
# [9] = system: galium (catchweed bedstraw, Galium aparine); test: Test B postemergence plant response
# Summary of the method: (§2)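 Plants grown in pots of loam soil–sand blend were sprayed postemergence with formulated test chemicals at 2 to 10 cm height, one- to two-leaf stage. After about 10 days in a greenhouse, injury was visually rated against untreated controls on a 0 to 100 scale (0 no effect, 100 complete control).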
# [10] = system: blackgrass (Alopecurus myosuroides); test: Test B postemergence plant response
# Summary of the method: as §2
# [11] = system: barnyardgrass (Echinochloa crus-galli); test: Test C flooded paddy test plant response; details: Flood, 250 g ai/ha; scale of 0 to 100 where 0 is no effect and 100 is complete control; 13 to 15 days
# Summary of the method: (§3)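 Flooded-pot format, 3 cm water over soil maintained for the test duration; test compounds dispensed into the water at the 2-leaf stage. Greenhouse holding 13 to 15 days. Plants evaluated visually relative to untreated controls, 0 meaning no effect and 100 complete control.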
# [12] = system: ducksalad (Heteranthera limosa); test: Test C flooded paddy test plant response; details: Flood, 250 g ai/ha; scale of 0 to 100 where 0 is no effect and 100 is complete control; 13 to 15 days
# Summary of the method: as §3
# [13] = system: small-flower umbrella sedge (Cyperus difformis); test: Test C flooded paddy test plant response; details: Flood, 250 g ai/ha; scale of 0 to 100 where 0 is no effect and 100 is complete control; 13 to 15 days
# Summary of the method: as §3
# [14] = system: rice (Oryza sativa); test: Test C flooded paddy test plant response; details: Flood, 250 g ai/ha; scale of 0 to 100 where 0 is no effect and 100 is complete control; 13 to 15 days
# Summary of the method: as §3
# [15] = 31 g ai/ha, Preemergence, 0 to 100 scale where 0 is no effect and 100 is complete control
# [16] = 125 g ai/ha, postemergence, 0 to 100 scale, 0 no effect, 100 complete control
# [17] = Postemergence, 31 g ai/ha, 0 to 100 scale (0 no effect, 100 complete control)
# [18] = Preemergence, 125 g ai/ha, 0 to 100 scale (0 no effect, 100 complete control)
smiles,measurement,setting,value
Clc1cnc(Oc2ccccc2-c2cc(Cl)ccn2)nc1 [Compound 174],"Plant response rating, Foxtail, Giant",[1]; [15],0
same,"Plant response rating, Foxtail, Giant",[1]; [16],0
same,"Plant response rating, Foxtail, Giant",[1]; [17],0
same,"Foxtail, Giant plant response rating",[1]; [18],40
same,"Plant response rating, Barnyardgrass",[2]; [15],0
same,"Plant response rating, Barnyardgrass",[2]; [16],10
same,"Plant response rating, Barnyardgrass",[2]; [17],0
same,Barnyardgrass plant response rating,[2]; [18],0
same,"Plant response rating, Pigweed",[3]; [15],60
same,"Plant response rating, Pigweed",[3]; [16],50
same,"Plant response rating, Pigweed",[3]; [17],50
same,Pigweed plant response rating,[3]; [18],80
same,"Plant response rating, Ryegrass, Italian",[4]; [15],0
same,"Plant response rating, Ryegrass, Italian",[4]; [16],0
same,"Plant response rating, Ryegrass, Italian",[4]; [17],0
same,"Ryegrass, Italian plant response rating",[4]; [18],0
same,"Plant response rating, Corn",[5]; [16],0
same,"Plant response rating, Corn",[5]; [17],0
same,"Plant response rating, Ragweed",[6]; [15],0
same,"Plant response rating, Ragweed",[6]; [16],30
same,"Plant response rating, Ragweed",[6]; [17],20
same,Ragweed plant response rating,[6]; [18],0
same,"Plant response rating, Wheat",[7]; [16],0
same,"Plant response rating, Wheat",[7]; [17],0
same,"Plant response rating, Kochia",[8]; [16],70
same,"Plant response rating, Kochia",[8]; [17],60
same,Kochia plant response rating,[8]; [18],0
same,"Plant response rating, Galium",[9]; [16],70
same,"Plant response rating, Galium",[9]; [17],60
same,"Plant response rating, Blackgrass",[10]; [16],50
same,"Plant response rating, Blackgrass",[10]; [17],40
same,Barnyardgrass plant response rating,[11],0
same,Ducksalad plant response rating,[12],0
same,"Sedge, Umbrella plant response rating",[13],0
same,Rice plant response rating,[14],0
Fc1ccnc(-c2ccccc2Oc2ncc(Cl)cn2)c1 [Compound 175],"Plant response rating, Foxtail, Giant",[1]; [15],0
same,"Plant response rating, Foxtail, Giant",[1]; [16],0
same,"Plant response rating, Foxtail, Giant",[1]; [17],0
same,"Foxtail, Giant plant response rating",[1]; [18],0
same,"Plant response rating, Barnyardgrass",[2]; [15],0
same,"Plant response rating, Barnyardgrass",[2]; [16],10
same,"Plant response rating, Barnyardgrass",[2]; [17],0
same,Barnyardgrass plant response rating,[2]; [18],0
same,"Plant response rating, Pigweed",[3]; [15],0
same,"Plant response rating, Pigweed",[3]; [16],60
same,"Plant response rating, Pigweed",[3]; [17],50
same,Pigweed plant response rating,[3]; [18],70
same,"Plant response rating, Ryegrass, Italian",[4]; [15],0
same,"Plant response rating, Ryegrass, Italian",[4]; [16],0
same,"Plant response rating, Ryegrass, Italian",[4]; [17],0
same,"Ryegrass, Italian plant response rating",[4]; [18],0
same,"Plant response rating, Corn",[5]; [16],0
same,"Plant response rating, Corn",[5]; [17],0
same,"Plant response rating, Ragweed",[6]; [15],0
same,"Plant response rating, Ragweed",[6]; [16],30
same,"Plant response rating, Ragweed",[6]; [17],20
same,Ragweed plant response rating,[6]; [18],0
same,"Plant response rating, Wheat",[7]; [16],0
same,"Plant response rating, Wheat",[7]; [17],0
same,"Plant response rating, Kochia",[8]; [15],0
same,"Plant response rating, Kochia",[8]; [16],30
same,"Plant response rating, Kochia",[8]; [17],0
same,Kochia plant response rating,[8]; [18],0
same,"Plant response rating, Galium",[9]; [16],40
same,"Plant response rating, Galium",[9]; [17],20
same,"Plant response rating, Blackgrass",[10]; [16],0
same,"Plant response rating, Blackgrass",[10]; [17],0
same,Barnyardgrass plant response rating,[11],0
same,Ducksalad plant response rating,[12],0
same,"Sedge, Umbrella plant response rating",[13],0
same,Rice plant response rating,[14],0
FC(F)(F)COc1cc(-c2ccccc2Oc2ncc(Cl)cn2)on1 [Compound 176],"Plant response rating, Foxtail, Giant",[1]; [15],60
same,"Plant response rating, Foxtail, Giant",[1]; [16],50
same,"Plant response rating, Foxtail, Giant",[1]; [17],20
same,"Foxtail, Giant plant response rating",[1]; [18],90
same,"Plant response rating, Barnyardgrass",[2]; [15],10
same,"Plant response rating, Barnyardgrass",[2]; [16],30
same,"Plant response rating, Barnyardgrass",[2]; [17],10
same,Barnyardgrass plant response rating,[2]; [18],50
same,"Plant response rating, Pigweed",[3]; [15],30
same,"Plant response rating, Pigweed",[3]; [16],100
same,"Plant response rating, Pigweed",[3]; [17],90
same,Pigweed plant response rating,[3]; [18],90
same,"Plant response rating, Ryegrass, Italian",[4]; [15],0
same,"Plant response rating, Ryegrass, Italian",[4]; [16],10
same,"Plant response rating, Ryegrass, Italian",[4]; [17],0
same,"Ryegrass, Italian plant response rating",[4]; [18],10
same,"Plant response rating, Corn",[5]; [16],30
same,"Plant response rating, Corn",[5]; [17],10
same,"Plant response rating, Ragweed",[6]; [15],0
same,"Plant response rating, Ragweed",[6]; [16],20
same,"Plant response rating, Ragweed",[6]; [17],10
same,Ragweed plant response rating,[6]; [18],0
same,"Plant response rating, Wheat",[7]; [16],0
same,"Plant response rating, Wheat",[7]; [17],0
same,"Plant response rating, Kochia",[8]; [15],0
same,"Plant response rating, Kochia",[8]; [16],100
same,"Plant response rating, Kochia",[8]; [17],30
same,Kochia plant response rating,[8]; [18],20
same,"Plant response rating, Galium",[9]; [16],90
same,"Plant response rating, Galium",[9]; [17],30
same,"Plant response rating, Blackgrass",[10]; [16],30
same,"Plant response rating, Blackgrass",[10]; [17],0
same,Barnyardgrass plant response rating,[11],0
same,Ducksalad plant response rating,[12],75
same,"Sedge, Umbrella plant response rating",[13],30
same,Rice plant response rating,[14],0
